According to patent US11198761B2, “Biodegradable polyionenes” (AGENCY FOR SCIENCE, TECHNOLOGY AND RESEARCH, priority 2017, dated 2021):

Key:
E. coli biofilms [1] = experiment: XTT assay for cell viability of biofilms; format: cell-based, Escherichia coli; conditions: 18 hours treatment
Experimental: (§1) The bacteria stock was diluted in Mueller Hinton Broth (MHB) to get an optical density (OD) reading of 0.07 at 600 nm. 48 wells of a 96 flat-well plate were plated with 100 μL of bacteria suspension each. The plate was then incubated at 37° C. Every day over the next 7 days, MHB was carefully removed from the plate so as not to disturb the biofilm at the bottom of the well, and replaced with 100 μL of fresh MHB to each well.
(§2) After the biofilm was cultured, at the end of 7 days, MHB was removed from the wells. The biofilms were washed carefully with PBS 3 times to remove planktonic cells. The surfactant was weighed in a micro-centrifuge tube, and the weighed sample was diluted to 10,000 mg L^−1 using distilled water. Serial dilution was conducted to obtain surfactant solutions having concentrations of 100 mg L^−1, 70 mg L^−1, 50 mg L^−1, 35 mg L^−1, 25 mg L^−1, 20 mg L^−1, and 10 mg L^−1. The solvent was 20% distilled water and 80% MHB for each solution. The control was 20% distilled water and 80% MHB without surfactant. The surfactant solutions of different concentrations were added to the wells, 100 μL into each, with 6 replicates for each concentration. The plate was then incubated at 37° C. for 18 hours. […] At the end of the incubation period, the optical density (OD) reading of the plate was taken at 490 nm.

[2] = test system: S. aureus, E. coli, P. aeruginosa, C. albicans; experiment: Killing kinetics, several strains together; format: cell-based
Experimental: 600 μL of 3×10^5 CFU/mL microbial suspension was added to each concentration of the polymer. […] 20 μL of the diluted microbial suspension was then plated onto agar plates and incubated for 24 hours and 42 hours at 37° C. and room temperature for bacteria and fungi respectively, then manually counted for CFU.

[3] = test system: P. aeruginosa (ATCC No. 9027); experiment: MIC, broth microdilution; format: cell-based, Pseudomonas aeruginosa; conditions: Gemini-surfactant series S; 18 hours, 37° C.
Experimental: (§3) Bacterial and fungal samples were inoculated according to ATCC's requirement. Briefly, bacteria and fungi were grown in Mueller Hinton Broth (MHB) at 37° C. and room temperature, respectively overnight to allow the microbes to enter the log growth phase with constant 100 rpm shaking. Minimum inhibitory concentration (MIC) of the polymers was determined using the broth microdilution method. 100 μL of 20% v/v water-containing broth with various polymer or Gemini-surfactant concentrations was first added into each well of a 96-well tissue culture plate. The inoculated overnight microbe solution was first diluted to an optical density (O.D.) reading of 0.07 using a microplate reader (TECAN, Switzerland). This will correspond to 3×10^8 CFU/mL based on the McFarland 1 standard solution (CFU=colony forming units). The microbe solution was further diluted 1000 times to achieve a final 3×10^5 CFU/mL. To each well, an equal volume of diluted microbes solution was added and incubated at 37° C. for 18 hours for bacteria samples and at room temperature for 42 hours for fungi samples. There were 6 replicates for each concentration tested, with negative control being microbes added into broth containing 20% v/v deionized water. MIC was taken as the lowest concentration at which there was no observable microbe growth when measured by the microplate reader.

S. aureus biofilms [4] = experiment: XTT assay for cell viability of biofilms; format: cell-based, Staphylococcus aureus; conditions: 18 hours treatment
Experimental: as §1, §2

E. coli biofilms [5] = experiment: Biofilm biomass assay (safranin O); format: cell-based, Escherichia coli; conditions: 18 hours treatment
Experimental: as §1
as §2, with “10000” for “10,000”, “of” for “having”, “concentrations” for “concentrations of”, “was” for “was then”, “550” for “490”

[6] = test system: S. aureus (ATCC No. 6538); experiment: MIC, broth microdilution; format: cell-based, Staphylococcus aureus; conditions: Gemini-surfactant series S; 18 hours, 37° C.
Experimental: as §3

[7] = test system: S. aureus, E. coli, P. aeruginosa, C. albicans; experiment: Killing efficiency test (CFU on agar after MIC testing); format: cell-based; conditions: at MIC and 2×MIC, all the microbes
Experimental: After MIC testing, all solutions from the control, ½MIC, MIC and 2MIC wells were collected and subjected to a series of ten-fold dilution. 20 μL of the diluted microbe solution was streaked onto pre-casted agar plates using LB+1.5% agar from the first Base. Agar plates with bacteria samples were incubated at 37° C. for 18 hours while those with fungi samples were incubated for 42 hours at room temperature before the CFUs were counted.

[8] = test system: rat red blood cells (rRBCs); experiment: Hemolysis assay; format: cell-based; conditions: Gemini-surfactant series S; 1 hour, 37° C.
Experimental: Freshly obtained rat red blood cells (rRBC) from the Animal Handling Unit of Biomedical Research Center (Singapore) was used to test the hemolytic activity of the polymers and Gemini-surfactants. The rRBC was diluted to 4% v/v with phosphate-buffered saline (PBS) and added to an equal volume of 0.2% v/v Triton-X solution. A microplate reader was used to measure the optical density (O.D.) reading to make sure the value is between 0.5 and 0.6. An equal volume of different polymer or Gemini-surfactant concentrations was added to the diluted blood and incubated for 1 hour at 37° C. The samples were centrifuged at 1000 g at 4° C. for 5 minutes and 100 μL of the supernatant was collected and transferred to a 96-well tissue culture plate. There were 4 replicates for each concentration. Haemoglobin release was measured using the microplate reader at 576 nm. rRBCs treated with PBS were used as the […] control, while those treated with 0.2% v/v Triton-X was used as the […] control.
Percentage of hemolysis was calculated as follows: Hemolysis (%)═[(O.D.576 nm of the treated sample−O.D.576 nm of negative control)/(O.D.576 nm of positive control−O.D.576 nm of negative control)]×100%
HC50 was taken as the polymer concentration at which the polymer causes 50% hemolysis.

S. aureus biofilms [9] = experiment: Biofilm biomass assay (safranin O); format: cell-based, Staphylococcus aureus; conditions: 18 hours treatment
Experimental: as §1
as §2, with “10000” for “10,000”, “of” for “having”, “concentrations” for “concentrations of”, “was” for “was then”, “550” for “490”

E. coli (ATCC No. 25922) = experiment: MIC, broth microdilution; format: cell-based, Escherichia coli; conditions: Gemini-surfactant series S; 18 hours, 37° C.
Experimental: as §3

[10] = test system: C. albicans (ATCC No 10231); experiment: MIC, broth microdilution; format: cell-based, Candida albicans; conditions: Gemini-surfactant series S; 42 hours, room temperature
Experimental: as §3

K. pneumoniae 8637 [11] = experiment: Survival of K. pneumoniae 8637-infected mice; format: in vivo; conditions: 2.0 mg/kg intraperitoneally once daily for 3 days, five days, n=10
Experimental: ICR mice (female, 7 weeks old, […]) were used for the in vivo studies. Immunosuppression was induced by intraperitoneal injection of 200 mg/Kg cyclophosphamide (Hengrui Corp, Jiangsu Province, P. R. China) 4 days prior to infection. Mice were anesthetized by intra-peritoneal injection of 1% pentobarbital (40 mg/kg, Sigma).
To investigate the in vivo antibacterial efficacy of P-1a-1 (6037B), a pneumonia mouse model was established. The immunosuppression of mice was induced as described above. Overnight cultures of K. pneumoniae 8637 were harvested and suspended in PBS. Before instillation with K. pneumoniae 8637, the mice were anesthetized using an intraperitoneal injection with 1% pentobarbital (40 mg/kg). […] It was determined from the survival rate of mice at 5 days post-infection by the BLISS method.
To further determine the in vivo therapeutic efficacy of P-1a-1 (6037B), survival of the K. pneumoniae 8637-infected mice was monitored with and without treatment. […] After being anesthetized, each of the immunosuppressed mice was inoculated intranasally with 0.03 mL of bacterial suspension at the minimum lethal dose determined above. […] The mice were monitored for a period of five days, and the number of surviving mice in each group was recorded. […]

K. pneumoniae 8637 [12] = experiment: Efficacy (ED50/ED95) in K. pneumoniae 8637-induced pneumonia; format: in vivo; conditions: immunosuppressed mice, intraperitoneally once daily for 3 days, survival over 5 days, BLISS method
Experimental: ICR mice (female, 7 weeks old, 24-26 mg) were used for the in vivo studies. Immunosuppression was induced by intraperitoneal injection of 200 mg/Kg cyclophosphamide (Hengrui Corp, Jiangsu Province, P. R. China) 4 days prior to infection. Mice were anesthetized by intra-peritoneal injection of 1% pentobarbital (40 mg/kg, Sigma).
The immunosuppression of mice was induced as described above. Overnight cultures of K. pneumoniae 8637 were harvested and suspended in PBS. Before instillation with K. pneumoniae 8637, the mice were anesthetized using an intraperitoneal injection with 1% pentobarbital (40 mg/kg). Each of the immunosuppressed mice was infected intranasally with 0.03 mL of the bacterial suspension at designated doses (i.e. 1×10^9, 1.5×10^9, 2.3×10^9, 3.5×10^9, 5.3×10^9, 8.0×10^9 CFU/ml, four mice per group). The minimum lethal dose was defined as the lowest dose, which was sufficient to cause 100% mortality. It was determined from the survival rate of mice at 5 days post-infection by the BLISS method.
The number of surviving mice in each group was recorded for 5 days to assess ED50 by the BLISS method.

| MIC PA [3] [ppm] | MIC SA [6] [ppm] | MIC EC (E. coli (ATCC No. 25922)) [ppm] | MIC CA [10] [ppm] | SMILES | biofilm cell viability (E. coli biofilms [1]) | killing of all four strains of microbes ([2]; 16 and 32×MIC, 2 minutes) | concentration needed to completely eradicate the microbes ([2]; 30 seconds) [×MIC] | biofilm cell viability (S. aureus biofilms [4]) | biomass of biofilm (E. coli biofilms [5]) | reduction in the colony forming units (CFU) [7] [%] | Hemolysis, HC50 [8] | biomass of biofilm (S. aureus biofilms [9]) | survival (K. pneumoniae 8637 [11]) [%] | ED50 (K. pneumoniae 8637 [12]; Klebsiella pneumoniae, 8637, ip) [mg/kg] | ED95 (K. pneumoniae 8637 [12]) [mg/kg] |
| --- | --- | --- | --- | --- | --- | --- | --- | --- | --- | --- | --- | --- | --- | --- | --- |
| 8 | 1 | 1 | 2 | CCCCCCCCCC[N+](C)(C)Cc1ccc(C(=O)NCCCCCCNC(=O)c2ccc(C[N+](C)(C)CCCCCCCCCC)cc2)cc1.[Cl-].[Cl-] [S-3g] | reduced in a dose dependent manner | completely killed | 64 | reduced in a dose dependent manner | reduced in a dose dependent manner | ≥ 99.9 | 125-250 ppm | reduced in a dose dependent manner | – | – | – |
| – | – | – | – | C[C@@H](O)[C@H]1C(=O)N2C(C(=O)O)=C(SCCN=CN)C[C@H]12 [imipenem] | – | – | – | – | – | – | – | – | 60 | 2.75 | 20.0 |
